Experimental data as given in US7803818B2, “Amorphous form of 1,2-dihydropyridine compound” (Eisai R&D Management Co., Ltd., priority 2005, dated 2010).

How the values were obtained:
[1] = Solubility in JP2 fluid after shaking 5 minutes (shake flask method); assay type: physicochemical; conditions: for Concentration (solubility in JP2 fluid after shaking 5 minutes): JP2 fluid pH 6.8, about 5 mg in 5 mL, shaking 5 minutes at room temperature, filtration, HPLC
Procedure: Measurement of Solubility in JP2 Fluid after Shaking 5 minutes (Shake Flask Method)
Sample solutions were prepared by placing each sample (about 5 mg) in test tube, adding 5 mL of “2nd fluid” as described in General Tests (disintegration test) of Japanese Pharmacopeia (JP2 fluid: pH 6.8), and shaking 5 minutes at room temperature, followed by filtration. These sample solutions were analyzed using high performance liquid chromatography (HPLC), and calculated the concentration.
HPLC System: LC-10AT System (from Shimadzu Corporation)
Detector: ultraviolet absorptiometer (wavelength: 290 nm)
Column: YMC Pack Pro C18, 4.6 mm I.D.×150 mm (from YMC, Japan)
Column temperature: 35° C.
Auto sampler temperature: 25° C.
A: water/acetonitrile/ammonium acetate (900:100:1, v/v/w)
B: water/acetonitrile/ammonium acetate (100:900:1, v/v/w)
(Isocratic Condition: B Concentration=40%)

AMPA receptor = conditions: see Patent Document 1 (WO/JP01/96308); cited from earlier work

Compound | solubility in a solution such as JP2 fluid ([1]; JP2 fluid (2nd fluid of Disintegration Test, Japanese pharmacopoeia)) | Concentration (solubility in JP2 fluid after shaking 5 minutes) [1] | antagonistic action against AMPA receptor (AMPA receptor)
N#Cc1ccccc1-c1cc(-c2ccccn2)cn(-c2ccccc2)c1=O [Example 1] | excellent solubility | 12.5 µg/mL | –
N#Cc1ccccc1-c1cc(-c2ccccn2)cn(-c2ccccc2)c1=O [compound (1), 3-(2-cyanophenyl)-5-(2-pyridyl)-1-phenyl-1,2-dihydropyridin-2-one] | – | – | significant antagonistic action
N#Cc1ccccc1-c1cc(-c2ccccn2)cn(-c2ccccc2)c1=O [Reference Example 1, 3-(2-cyanophenyl)-5-(2-pyridyl)-1-phenyl-1,2-dihydropyridin-2-one, reference compound] | – | 4.8 µg/mL | –
